# Where two headings read alike, the source gives them in different places.
# Molecular target: T1, FAAH (Rattus norvegicus, UniProt P97612)
# T1 construct: Preparation of Rat Brain Membranes Preparations (FAAH Enzyme Solution); from tissue; host or cells: rat cerebrum (brain membrane preparation)
# T1 sequence (P97612 1-579): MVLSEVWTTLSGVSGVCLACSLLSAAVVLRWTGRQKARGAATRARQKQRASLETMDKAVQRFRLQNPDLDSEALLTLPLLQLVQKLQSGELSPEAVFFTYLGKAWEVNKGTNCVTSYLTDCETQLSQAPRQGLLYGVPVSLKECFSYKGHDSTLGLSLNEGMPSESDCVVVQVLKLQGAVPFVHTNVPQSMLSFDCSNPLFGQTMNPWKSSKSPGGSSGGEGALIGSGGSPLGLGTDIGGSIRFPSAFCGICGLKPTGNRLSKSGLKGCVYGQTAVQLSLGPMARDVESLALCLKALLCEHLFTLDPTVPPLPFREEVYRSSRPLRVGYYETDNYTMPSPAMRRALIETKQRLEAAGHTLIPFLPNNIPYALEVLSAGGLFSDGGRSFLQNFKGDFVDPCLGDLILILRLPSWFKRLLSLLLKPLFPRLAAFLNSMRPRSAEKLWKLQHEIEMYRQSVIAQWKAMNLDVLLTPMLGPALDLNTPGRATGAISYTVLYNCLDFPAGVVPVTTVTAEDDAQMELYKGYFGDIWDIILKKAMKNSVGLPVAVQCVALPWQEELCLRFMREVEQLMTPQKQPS
# Assay: Determination of FAAH inhibitory activity in rat (rat brain membrane preparations, [3H]-anandamide hydrolysis)
# Format: biochemical
# Settings: rat brain membrane preparations; for IC50: read-out: FAAH Inhibition IC50
# Procedure, shortened: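 Compounds tested from 0.1 nM to 1 μM to derive IC50 against FAAH hydrolysis in rat brain membrane preparations (100 μg/mL). A 10-min 37 °C preincubation was followed by 10 min with [3H]-anandamide (2 nM) mixed with 2 μM unlabelled anandamide. Radioactive ethanolamine was extracted into the water/methanol layer and counted.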
# [1] = 100 nM test substance, read-out: FAAH Inhibition, Inhibition Rate at 100 nM
# [2] = at 100 nM, read-out: FAAH Inhibition Inhibition Rate at 100 nM
inhibition at 0.1 µM [1] [%],IC50 (test substance 0.1 nM to 1 μM) [nM],inhibition at 0.1 µM [2] [%],IC50 [nM],SMILES
101,4,,,"Cn1c(=O)n(C(=O)N2CCN(c3ccc(F)cc3)CC2)c2cnc(-c3ccccc3)nc21 [Example 123, 7-{[4-(4-Fluorophenyl)piperazin-1-yl]carbonyl}-9-methyl-2-phenyl-7,9-dihydro-8H-purine-8-one]"
28,> 100,,,COc1cncc(-c2ncc3c(n2)n(C(=O)N2CCCC2)c(=O)n3C)c1 [Example 251]
,,100,9,"CCn1c(=O)n(C(=O)N2CCC2)c2nc(CCc3ccc(F)cc3)ncc21 [Example 651, 9-(Azetidin-1-ylcarbonyl)-7-ethyl-2-[2-(4-fluorophenyl)ethyl]-7,9-dihydro-8H-purine-8-one]"
79,27,,,CN(C)C(=O)n1c(=O)n(C)c2cnc(CCc3cccc(OC(F)F)c3)nc21 [compound 548]
,,48,105,CCCc1ncc2c(n1)n(C)c(=O)n2C(=O)N1CC(Oc2ccccc2CC)C1 [Example 629]
98,48,,,"Cn1c(=O)n(C(=O)N2CCCC2)c2nc(Cc3c(F)cccc3F)ncc21 [Example 298, 2-(2,6-Difluorobenzyl)-7-methyl-9-(pyrrolidin-1-ylcarbonyl)-7,9-dihydro-8H-purine-8-one]"
100,2,,,"COCc1ncc2c(n1)n(C)c(=O)n2C(=O)N1CC[C@H](Oc2ccccc2Cl)C1 [Example 491, 7-{[(3S)-3-(2-Chlorophenoxy)pyrrolidin-1-yl]carbonyl}-2-(methoxymethyl)-9-methyl-7,9-dihydro-8H-purine-8-one]"
92,47,,,"Cc1ccc(/C=C/c2ncc3c(n2)n(C)c(=O)n3C(=O)N2CCCC2)cc1 [Example 9, 9-Methyl-2-[(E)-2-(4-methylphenyl)ethenyl]-7-(pyrrolidin-1-ylcarbonyl)-7,9-dihydro-8H-purine-8-one]"
100,5,,,CCCCc1ccc(CCc2ncc3c(n2)n(C(=O)N(C)C)c(=O)n3C)cc1 [compound 508]
81,31,,,Cn1c(=O)n(C(=O)N2CCC2)c2nc(COc3cccc(Cl)c3)ncc21 [Example 419]
102,10,,,Cc1cc(C)cc(CCc2ncc3c(n2)n(C(=O)N(C)C)c(=O)n3C)c1 [compound 514]
97,40,,,"CCOc1ccc(-c2ncc3c(n2)n(C(=O)N2CCCC2)c(=O)n3C)cc1 [Example 233, 2-(4-Ethoxyphenyl)-7-methyl-9-(pyrrolidin-1-ylcarbonyl)-7,9-dihydro-8H-purine-8-one]"
23,> 100,,,Cn1c(=O)n(C(=O)N2CCCC2)c2cnc(/C=C/c3cccc(C(F)(F)F)c3)nc21 [compound 10]
104,10,,,CCCc1ccc(CCc2ncc3c(n2)n(C(=O)N(C)C)c(=O)n3C)cc1 [compound 500]
112,3,,,CN(C)C(=O)n1c(=O)n(C)c2cnc(COc3cccc(OC(F)(F)F)c3)nc21 [Example 423]
73,64,,,CC(C)c1ncc2c(n1)n(C)c(=O)n2C(=O)N1CCCC1 [Example 275]
39,> 100,,,COc1cc(Cc2ncc3c(n2)n(C)c(=O)n3C(=O)N2CCCC2)cc(OC)c1 [compound 271]

inhibition at 0.1 µM [1] [%],IC50 (test substance 0.1 nM to 1 μM) [nM],inhibition at 0.1 µM [2] [%],IC50 [nM],SMILES
105,4,,,COCCc1ncc2c(n1)n(C)c(=O)n2C(=O)N1CC(c2cccc(F)c2)C1 [compound 391]
100,6,,,"Cn1c(=O)n(C(=O)N2CCCC2)c2cnc(/C=C/c3ccccc3)nc21 [Example 1, 9-methyl-2-[(E)-2-phenylethenyl]-7-(pyrrolidin-1-ylcarbonyl)-7,9-dihydro-8H-purine-8-one]"
57,89,,,Cn1c(=O)n(C(=O)N2CCCC2)c2nc(-c3ccccc3F)ncc21 [compound 225]
,,96,10,CN(C)C(=O)n1c(=O)n(C)c2cnc(CCC3CCCCC3)nc21 [Example 615]
94,25,,,"Cn1c(=O)n(C(=O)N2CCN(c3nccs3)CC2)c2cnc(-c3ccccc3)nc21 [Example 55, 9-Methyl-2-phenyl-7-{[4-(1,3-thiazol-2-yl)piperazin-1-yl]carbonyl}-7,9-dihydro-8H-purine-8-one]"
105,7,,,COc1ccc(-c2ncc3c(n2)n(C)c(=O)n3C(=O)N2CCCC2)cc1F [compound 191]
103,2,,,"COc1cccc(-c2ncc3c(n2)n(C)c(=O)n3C(=O)N(C)CCC2CCCCC2)c1 [Example 109, N-(2-Cyclohexylethyl)-2-(3-methoxyphenyl)-N,9-dimethyl-8-oxo-8,9-dihydro-7H-purine-7-carboxamide]"
102,7,,,"COc1cccc(-c2ncc3c(n2)n(C)c(=O)n3C(=O)N2CCC(COc3ccccc3)CC2)c1 [Example 101, 2-(3-Methoxyphenyl)-9-methyl-7-{[4-(phenoxymethyl)piperidin-1-yl]carbonyl}-7,9-dihydro-8H-purine-8-one]"
93,46,,,"COc1cccc(-c2ncc3c(n2)n(C)c(=O)n3C(=O)N2CCC(Cc3ccccc3)CC2)c1 [Example 66, 7-[(4-Benzylpiperidin-1-yl)carbonyl]-2-(3-methoxyphenyl)-9-methyl-7,9-dihydro-8H-purine-8-one]"
62,95,,,"CN(C)C(=O)n1c(=O)n(C)c2cnc(-c3ccc(C(F)F)cc3)nc21 [Example 330, 2-[4-(Difluoromethyl)phenyl]-N,N,7-trimethyl-8-oxo-7,8-dihydro-9H-purine-9-carboxamide]"
75,68,,,CCOc1ccc(Cc2ncc3c(n2)n(C)c(=O)n3C(=O)N2CCCC2)cc1 [compound 263]
98,40,,,"Cc1cccc(Cc2ncc3c(n2)n(C)c(=O)n3C(=O)N2CCCC2)c1 [Example 258, 9-Methyl-2-(3-methylbenzyl)-7-(pyrrolidin-1-ylcarbonyl)-7,9-dihydro-8H-purine-8-one]"
63,96,,,Cn1c(=O)n(C(=O)N2CCC2)c2cnc(COc3ccccc3Cl)nc21 [compound 409]
97,39,,,"COc1cccc(/C=C/c2ncc3c(n2)n(C(=O)N2CCCC2)c(=O)n3C)c1 [Example 247, 2-[(E)-2-(3-Methoxyphenyl)ethenyl]-7-methyl-9-(pyrrolidin-1-ylcarbonyl)-7,9-dihydro-8H-purine-8-one]"
84,9,,,CN(C)C(=O)n1c(=O)n(C)c2cnc(CCCOc3ccc(F)cc3)nc21 [Example 398]
102,7,,,CC(=O)c1cccc(-c2ncc3c(n2)n(C)c(=O)n3C(=O)N2CCCC2)c1 [compound 186]
93,24,,,Cc1cccc(CCc2ncc3c(n2)n(C(=O)N(C)C)c(=O)n3C)c1 [compound 498]
